Converted amounts (≈) assume the structure as drawn. The source made the active and inactive calls. No cut-off for these calls is given here.
How the values were obtained:
Staphylococcus aureus [1] = assay: Antibacterial activity against methicillin resistant Staphylococcus aureus MED 1805 bloodstream isolate assessed as bacterial count at 1 ug/ml after 2 hrs by time-kill assay; assay type: functional
Streptococcus pyogenes [2] = assay: Antibacterial activity against Streptococcus pyogenes MED 2040 assessed as bacterial count at […] after 8 hrs by time-kill assay; assay type: functional
Staphylococcus aureus [3] = assay: Antibacterial activity against methicillin resistant Staphylococcus aureus MED 1805 bloodstream isolate assessed as bacterial count at 1 ug/ml after 8 hrs by time-kill assay; assay type: functional
[4] = test system: Staphylococcus epidermidis; assay: Antibacterial activity against methicillin resistant Staphylococcus epidermidis ATCC 35984 assessed as bacterial count at 2 ug/ml after 8 hrs by time-kill assay; assay type: functional
[5] = test system: Staphylococcus epidermidis; assay: Antibacterial activity against methicillin resistant Staphylococcus epidermidis ATCC 35984 assessed as bacterial count at 8 ug/ml after 24 hrs by time-kill assay; assay type: functional
[6] = test system: Staphylococcus epidermidis; assay: Antibacterial activity against methicillin resistant Staphylococcus epidermidis ATCC 35984 assessed as bacterial count at 16 ug/ml after 24 hrs by time-kill assay; assay type: functional
Streptococcus pyogenes [7] = assay: Antibacterial activity against Streptococcus pyogenes MED 2040 assessed as bacterial count at 0.5 ug/ml after 2 hrs by time-kill assay; assay type: functional
Streptococcus pyogenes [8] = assay: Antibacterial activity against Streptococcus pyogenes MED 2040 assessed as bacterial count at 0.5 ug/ml after 4 hrs by time-kill assay; assay type: functional
Streptococcus pneumoniae [9] = assay: Antibacterial activity against multidrug resistant Streptococcus pneumoniae MED 1090 assessed as bacterial count at 0.06 ug/ml after 24 hrs by time-kill assay; assay type: functional
[10] = test system: Streptococcus intermedius; assay: Antibacterial activity against Streptococcus intermedius clinical isolate by broth microdilution method; assay type: functional
Streptococcus agalactiae [11] = assay: Antibacterial activity against Streptococcus agalactiae MED 2038 by broth microdilution method; assay type: functional
Staphylococcus aureus [12] = assay: Antibacterial activity against methicillin resistant Staphylococcus aureus MED 2028 osteomyelitis isolate assessed as bacterial count at 8 ug/ml after 8 hrs by time-kill assay; assay type: functional
Streptococcus pneumoniae [13] = assay: Antibacterial activity against multidrug resistant Streptococcus pneumoniae MED 1090 assessed as bacterial count at 8 ug/ml after 4 hrs by time-kill assay; assay type: functional
Staphylococcus aureus [14] = assay: Antibacterial activity against methicillin resistant Staphylococcus aureus MED 2028 osteomyelitis isolate assessed as bacterial count at 2 ug/ml after 24 hrs by time-kill assay; assay type: functional
Streptococcus pyogenes [15] = assay: (§1) Antibacterial activity against Streptococcus pyogenes MED 2040 assessed as bacterial count at […] after 4 hrs by time-kill assay; assay type: functional
Streptococcus agalactiae [16] = assay: Antibacterial activity against Streptococcus agalactiae MED 2038 assessed as bacterial count at […] after 24 hrs by time-kill assay; assay type: functional
Streptococcus pneumoniae [17] = assay: Antibacterial activity against multidrug resistant Streptococcus pneumoniae MED 1090 assessed as bacterial count at 0.06 ug/ml after 4 hrs by time-kill assay; assay type: functional
Staphylococcus aureus [18] = assay: Antibacterial activity against methicillin resistant Staphylococcus aureus MED 2028 osteomyelitis isolate assessed as bacterial count at 8 ug/ml after 24 hrs by time-kill assay; assay type: functional
Streptococcus agalactiae [19] = assay: Antibacterial activity against Streptococcus agalactiae MED 2038 assessed as bacterial count at […] after 2 hrs by time-kill assay; assay type: functional
Streptococcus pneumoniae [20] = assay: Antibacterial activity against multidrug resistant Streptococcus pneumoniae MED 1090 assessed as bacterial count at 0.06 ug/ml after 8 hrs by time-kill assay; assay type: functional
Streptococcus agalactiae [21] = assay: Antibacterial activity against Streptococcus agalactiae MED 2038 assessed as bacterial count at 0.5 ug/ml after 8 hrs by time-kill assay; assay type: functional
Enterococcus faecalis [22] = assay: Antibacterial activity against Enterococcus faecalis ATCC 51575 assessed as bacterial count at 8 ug/ml after 2 hrs by time-kill assay; assay type: functional
Streptococcus pneumoniae [23] = assay: Antibacterial activity against multidrug resistant Streptococcus pneumoniae MED 1090 assessed as bacterial count at […] after 8 hrs by time-kill assay; assay type: functional
Staphylococcus aureus [24] = assay: Antibacterial activity against methicillin resistant Staphylococcus aureus MED 2028 osteomyelitis isolate assessed as bacterial count at 8 ug/ml after 2 hrs by time-kill assay; assay type: functional
Staphylococcus aureus [25] = assay: Antibacterial activity against methicillin resistant Staphylococcus aureus MED 2028 osteomyelitis isolate assessed as bacterial count at 16 ug/ml after 4 hrs by time-kill assay; assay type: functional
Staphylococcus aureus [26] = assay: Antibacterial activity against methicillin resistant Staphylococcus aureus MED 2028 osteomyelitis isolate assessed as bacterial count at 16 ug/ml after 8 hrs by time-kill assay; assay type: functional
Streptococcus pyogenes [27] = assay: Antibacterial activity against Streptococcus pyogenes MED 2040 assessed as bacterial count at 8 ug/ml after 2 hrs by time-kill assay; assay type: functional
Streptococcus agalactiae [28] = assay: Antibacterial activity against Streptococcus agalactiae MED 2038 assessed as bacterial count at 8 ug/ml after 4 hrs by time-kill assay; assay type: functional
Streptococcus pyogenes [29] = assay: Antibacterial activity against Streptococcus pyogenes MED 2040 assessed as bacterial count at […] after 24 hrs by time-kill assay; assay type: functional
Streptococcus pyogenes [30] = assay: Antibacterial activity against Streptococcus pyogenes MED 2040 assessed as bacterial count at 2 ug/ml after 24 hrs by time-kill assay; assay type: functional
[31] = test system: Staphylococcus epidermidis; assay: Antibacterial activity against methicillin resistant Staphylococcus epidermidis ATCC 35984 assessed as bacterial count at 16 ug/ml after 2 hrs by time-kill assay; assay type: functional
Staphylococcus aureus [32] = assay: Antibacterial activity against methicillin resistant Staphylococcus aureus MED 2028 osteomyelitis isolate assessed as bacterial count at 4 ug/ml after 24 hrs by time-kill assay; assay type: functional
Staphylococcus aureus [33] = assay: Antibacterial activity against methicillin resistant Staphylococcus aureus MED 2028 osteomyelitis isolate assessed as bacterial count at 4 ug/ml after 2 hrs by time-kill assay; assay type: functional
Streptococcus pneumoniae [34] = assay: Antibacterial activity against multidrug resistant Streptococcus pneumoniae MED 1090 assessed as bacterial count at 0.03 ug/ml after 24 hrs by time-kill assay; assay type: functional
Staphylococcus aureus [35] = assay: Antibacterial activity against methicillin resistant Staphylococcus aureus MED 2028 osteomyelitis isolate assessed as bacterial count at 16 ug/ml after 2 hrs by time-kill assay; assay type: functional
Streptococcus pyogenes [36] = assay: Antibacterial activity against Streptococcus pyogenes MED 2040 by broth microdilution method; assay type: functional
Streptococcus pneumoniae [37] = assay: Antibacterial activity against multidrug resistant Streptococcus pneumoniae MED 1090 assessed as bacterial count at 0.03 ug/ml after 2 hrs by time-kill assay; assay type: functional
Streptococcus pneumoniae [38] = assay: Antibacterial activity against penicillin intermediate Streptococcus pneumoniae clinical isolate by broth microdilution method; assay type: functional
Staphylococcus aureus [39] = assay: Antibacterial activity against methicillin resistant Staphylococcus aureus MED 1805 bloodstream isolate assessed as bacterial count at 2 ug/ml after 2 hrs by time-kill assay; assay type: functional
Enterococcus faecalis [40] = test system: Enterococcus faecalis
Staphylococcus aureus [41] = assay: Antibacterial activity against methicillin resistant Staphylococcus aureus MED 2028 osteomyelitis isolate assessed as bacterial count at 1 ug/ml after 8 hrs by time-kill assay; assay type: functional
Staphylococcus aureus [42] = assay: Antibacterial activity against methicillin resistant Staphylococcus aureus MED 1805 bloodstream isolate assessed as bacterial count at 16 ug/ml after 2 hrs by time-kill assay; assay type: functional
[43] = test system: Staphylococcus epidermidis; assay: Antibacterial activity against methicillin resistant Staphylococcus epidermidis ATCC 35984 assessed as bacterial count at 16 ug/ml after 8 hrs by time-kill assay; assay type: functional
Streptococcus pyogenes [44] = assay: as §1; assay type: functional; remark: listed apart in the source

**Q.** `CCCCCCCCCCNCCN[C@@]1(C)C[C@H](O[C@H]2[C@H](Oc3c4cc5cc3Oc3ccc(cc3Cl)[C@@H](O)[C@@H](NC(=O)[C@@H](CC(C)C)NC)C(=O)N[C@@H](CC(N)=O)C(=O)N[C@H]5C(=O)N[C@H]3C(=O)N[C@H](C(=O)N[C@H](C(=O)O)c5cc(O)c(CNCP(=O)(O)O)c(O)c5-c5cc3ccc5O)[C@H](O)c3ccc(c(Cl)c3)O4)O[C@H](CO)[C@@H](O)[C@@H]2O)O[C@@H](C)[C@H]1O` [TELAVANCIN] was tested. Which log10CFU/ml (Staphylococcus aureus [1]) did it give?
**A.** 0.9

**Q.** And the log10CFU/ml (Streptococcus pyogenes [2])?
**A.** 0.5

**Q.** And the log10CFU/ml (Staphylococcus aureus [3])?
**A.** 3.2

**Q.** What about the log10CFU/ml [4] of the same compound?
**A.** 0.7

**Q.** What about the log10CFU/ml [5] of the same compound?
**A.** 3.3

**Q.** What about the log10CFU/ml [6] of the same compound?
**A.** 3.3

**Q.** What about the log10CFU/ml (Streptococcus pyogenes [7]) of the same compound?
**A.** 0.9

**Q.** And the log10CFU/ml (Streptococcus pyogenes [8])?
**A.** 1.6

**Q.** And the log10CFU/ml (Streptococcus pneumoniae [9])?
**A.** 3.4

**Q.** What about the MIC [10] of the same compound?
**A.** 0.015 µg/mL (≈ 0.00854 µM)

**Q.** What about the MIC50 [10] of the same compound?
**A.** inactive

**Q.** What about the MIC90 [10] of the same compound?
**A.** inactive

**Q.** And the MIC (Streptococcus agalactiae [11])?
**A.** 0.06 µg/mL (≈ 0.0342 µM)

**Q.** What about the log10CFU/ml (Staphylococcus aureus [12]) of the same compound?
**A.** 3.4

**Q.** What about the log10CFU/ml (Streptococcus pneumoniae [13]) of the same compound?
**A.** 1.7

**Q.** What about the log10CFU/ml (Staphylococcus aureus [14]) of the same compound?
**A.** 3.4

**Q.** What about the log10CFU/ml (Streptococcus pyogenes [15]) of the same compound?
**A.** 1.8

**Q.** What about the log10CFU/ml (Streptococcus agalactiae [16]) of the same compound?
**A.** 0.6

**Q.** And the log10CFU/ml (Streptococcus pneumoniae [17])?
**A.** 2.1

**Q.** And the log10CFU/ml (Staphylococcus aureus [18])?
**A.** 3.4

**Q.** And the log10CFU/ml (Streptococcus agalactiae [19])?
**A.** 1

**Q.** What about the log10CFU/ml (Streptococcus pneumoniae [20]) of the same compound?
**A.** 3.4

**Q.** And the log10CFU/ml (Streptococcus agalactiae [21])?
**A.** 1.6

**Q.** And the log10CFU/ml (Enterococcus faecalis [22])?
**A.** 0.2

**Q.** What about the log10CFU/ml (Streptococcus pneumoniae [23]) of the same compound?
**A.** 3.3

**Q.** And the log10CFU/ml (Staphylococcus aureus [24])?
**A.** 0.4

**Q.** What about the log10CFU/ml (Staphylococcus aureus [25]) of the same compound?
**A.** 0.8

**Q.** And the log10CFU/ml (Staphylococcus aureus [26])?
**A.** 2.3

**Q.** What about the log10CFU/ml (Streptococcus pyogenes [27]) of the same compound?
**A.** 0.6

**Q.** And the log10CFU/ml (Streptococcus agalactiae [28])?
**A.** 0.9

**Q.** What about the log10CFU/ml (Streptococcus pyogenes [29]) of the same compound?
**A.** 2.2

**Q.** And the log10CFU/ml (Streptococcus pyogenes [30])?
**A.** 3.1

**Q.** What about the log10CFU/ml [31] of the same compound?
**A.** 0.5

**Q.** What about the log10CFU/ml (Staphylococcus aureus [32]) of the same compound?
**A.** 3.4

**Q.** What about the log10CFU/ml (Staphylococcus aureus [33]) of the same compound?
**A.** 0.7

**Q.** What about the log10CFU/ml (Streptococcus pneumoniae [34]) of the same compound?
**A.** 3.4

**Q.** What about the log10CFU/ml (Staphylococcus aureus [35]) of the same compound?
**A.** 0.3

**Q.** And the MIC (Streptococcus pyogenes [36])?
**A.** 0.06 µg/mL (≈ 0.0342 µM)

**Q.** What about the log10CFU/ml (Streptococcus pneumoniae [37]) of the same compound?
**A.** 1.1

**Q.** What about the MIC50 (Streptococcus pneumoniae [38]) of the same compound?
**A.** 0.015 µg/mL (≈ 0.00854 µM)

**Q.** And the MIC90 (Streptococcus pneumoniae [38])?
**A.** 0.06 µg/mL (≈ 0.0342 µM)

**Q.** And the log10CFU/ml (Staphylococcus aureus [39])?
**A.** 1

**Q.** What about the MIC50 (Enterococcus faecalis [40]) of the same compound?
**A.** inactive

**Q.** What about the MIC90 (Enterococcus faecalis [40]) of the same compound?
**A.** inactive

**Q.** What about the log10CFU/ml (Staphylococcus aureus [41]) of the same compound?
**A.** 3.4

**Q.** And the log10CFU/ml (Staphylococcus aureus [42])?
**A.** 0.7

**Q.** What about the log10CFU/ml [43] of the same compound?
**A.** 3.3

**Q.** What about the log10CFU/ml (Streptococcus pyogenes [44]) of the same compound?
**A.** 0.4

Source: ChEMBL document CHEMBL1275440, “In vitro activity of telavancin against resistant gram-positive bacteria” (2008)
